From ChEMBL document CHEMBL1201862, “PubChem BioAssay data set” (2004)
Activity calls are given as the source filed them.

Columns and labels:
[1] = Trypanosoma cruzi growth suppression in host cells – NIH3T3 host cells, beta-gal luminescence, confirmation (AID 2044); assay type: functional, cell-based;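 note: intracellular parasites grown in NIH/3T3 mouse fibroblasts as host cells; luminescent beta-galactosidase reporter signal from transgenic T. cruzi replicating inside host cells; inhibitors lower the luminescence signal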
[2] = non-specific 3'UTR reporter inhibition in Clone20-Shn3RL – cell-based, Renilla luciferase, cherry-picked, counter-screen for Shn3 inhibitor project, dose response (AID 624133); assay type: functional
HEK293 = assay: EBV LMP1 TES2 canonical NF-kB signalling blockers – cell-based, HEK293, luciferase, cherry-pick, dose response (AID 588343); assay type: functional; conditions: Homo sapiens
[3] = loss of viability in HepG2 cells – cell-based, CellTiter-Glo, cherry-picked, cytotoxicity control for Shn3 inhibitor project, dose response (AID 624134); assay type: functional
[4] = molecular target: T1, Type-1 angiotensin II receptor (Homo sapiens, UniProt P30556); assay: antagonism of angiotensin II type 1 receptor – cell-based, uHTS hits, selectivity assay for APJ receptor antagonist project, dose response (AID 463214); assay type: functional;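 note: antagonist potency against angiotensin II stimulated AT1 response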
T1 sequence (P30556 whole entry): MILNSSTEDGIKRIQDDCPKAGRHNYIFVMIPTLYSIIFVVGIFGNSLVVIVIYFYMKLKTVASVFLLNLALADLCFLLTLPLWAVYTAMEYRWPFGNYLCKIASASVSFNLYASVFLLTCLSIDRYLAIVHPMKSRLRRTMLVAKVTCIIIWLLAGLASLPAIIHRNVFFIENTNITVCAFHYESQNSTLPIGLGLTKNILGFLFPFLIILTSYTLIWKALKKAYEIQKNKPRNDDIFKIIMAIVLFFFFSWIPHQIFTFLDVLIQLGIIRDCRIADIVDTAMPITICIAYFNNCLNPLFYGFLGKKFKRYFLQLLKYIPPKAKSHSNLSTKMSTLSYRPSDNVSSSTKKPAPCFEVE

INS1 = assay: INS-1E survival protection against cytokine death – cell-based, luminescence, retest, dose response (AID 449756); assay type: functional; conditions: Rattus norvegicus;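 note: cell death triggered by IL-1 beta plus TNF-alpha plus IFN-gamma mixture; protective hits raise ATP signal compared with cytokine alone wells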
CHO = CHO cell viability loss, potency – luminescence, cytotoxicity control for TLR9-MyD88 binding inhibitor project, dose response (AID 588339); assay type: functional, cell-based, hamster; conditions: Cricetulus griseus;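 note: CHO cells stably coexpressing TLR9 and MyD88 fusions from primary screen; compound exposure lasted 48 hours before viability readout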
[5] = molecular target: T2, Replicative DNA helicase DnaB (Mycobacterium tuberculosis, UniProt P9WMR3); assay: DnaB intein splicing inhibitors, dose response, biochemical, cell-free fluorescence (AID 449749); assay type: functional
T2 sequence (P9WMR3 whole entry): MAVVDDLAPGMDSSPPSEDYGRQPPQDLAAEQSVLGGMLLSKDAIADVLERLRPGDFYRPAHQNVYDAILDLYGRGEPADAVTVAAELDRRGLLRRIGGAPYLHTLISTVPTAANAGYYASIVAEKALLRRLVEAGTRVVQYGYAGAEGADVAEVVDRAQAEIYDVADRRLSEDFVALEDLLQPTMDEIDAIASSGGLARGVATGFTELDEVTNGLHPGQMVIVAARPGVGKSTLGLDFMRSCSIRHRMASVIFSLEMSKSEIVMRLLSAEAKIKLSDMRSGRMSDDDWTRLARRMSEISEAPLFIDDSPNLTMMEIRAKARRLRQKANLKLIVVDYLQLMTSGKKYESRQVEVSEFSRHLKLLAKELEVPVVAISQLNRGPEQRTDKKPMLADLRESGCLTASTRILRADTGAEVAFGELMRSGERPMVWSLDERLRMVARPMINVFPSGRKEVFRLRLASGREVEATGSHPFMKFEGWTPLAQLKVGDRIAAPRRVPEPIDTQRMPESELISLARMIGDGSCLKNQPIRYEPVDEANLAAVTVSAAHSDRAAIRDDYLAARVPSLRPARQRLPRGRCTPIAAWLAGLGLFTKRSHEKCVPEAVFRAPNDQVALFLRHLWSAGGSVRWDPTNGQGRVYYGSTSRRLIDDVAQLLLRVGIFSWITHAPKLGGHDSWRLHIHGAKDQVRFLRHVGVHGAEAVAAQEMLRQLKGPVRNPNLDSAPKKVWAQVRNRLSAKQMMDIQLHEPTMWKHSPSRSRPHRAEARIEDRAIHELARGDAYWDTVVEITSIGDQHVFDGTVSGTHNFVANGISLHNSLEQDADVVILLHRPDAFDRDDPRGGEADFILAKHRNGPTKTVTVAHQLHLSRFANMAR

[6] = reduction of Shn3 3'UTR-driven luciferase in osteoblasts – cell-based, Clone20 osteoblasts, firefly luciferase, cherry-picked, dose response (AID 624132); assay type: functional;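 note: firefly luciferase luminescence from reporter carrying the Shn3 3'UTR in osteoblasts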
Protein RecA = molecular target: T3, Protein RecA (Mycobacterium tuberculosis, UniProt P9WHJ3); assay: Fluorescence Cell-Free Homogeneous Dose Retest to Identify Inhibitors of RecA-Intein Splicing Activity. [Related pubchem assays (depositor defined):AID2097, AID2223, AID489010, AID492950]; assay type: functional
T3 sequence (P9WHJ3 whole entry): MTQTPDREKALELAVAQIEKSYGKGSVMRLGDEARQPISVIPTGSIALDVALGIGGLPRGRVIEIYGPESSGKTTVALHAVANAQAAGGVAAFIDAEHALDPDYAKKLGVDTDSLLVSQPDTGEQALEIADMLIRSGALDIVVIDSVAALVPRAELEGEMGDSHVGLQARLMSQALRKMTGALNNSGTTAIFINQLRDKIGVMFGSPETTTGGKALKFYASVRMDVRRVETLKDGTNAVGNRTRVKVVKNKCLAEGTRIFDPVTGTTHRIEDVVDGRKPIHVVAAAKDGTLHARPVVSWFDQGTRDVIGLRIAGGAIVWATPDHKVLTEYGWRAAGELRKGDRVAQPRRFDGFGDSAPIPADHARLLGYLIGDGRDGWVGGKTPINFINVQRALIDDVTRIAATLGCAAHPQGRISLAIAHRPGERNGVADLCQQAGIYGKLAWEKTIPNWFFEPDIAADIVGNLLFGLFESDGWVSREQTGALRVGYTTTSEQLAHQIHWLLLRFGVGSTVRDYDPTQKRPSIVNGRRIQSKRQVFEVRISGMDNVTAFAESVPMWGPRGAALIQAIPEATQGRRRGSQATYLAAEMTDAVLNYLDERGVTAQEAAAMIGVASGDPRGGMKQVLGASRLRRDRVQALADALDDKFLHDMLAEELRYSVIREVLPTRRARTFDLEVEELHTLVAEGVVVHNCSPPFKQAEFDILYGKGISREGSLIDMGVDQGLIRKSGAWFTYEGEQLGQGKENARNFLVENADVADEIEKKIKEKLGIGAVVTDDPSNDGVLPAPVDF

[7] = NIH3T3 cell viability loss – ATP luminescence, mouse fibroblasts, counter-screen, dose response (AID 2010); assay type: functional, cell-based;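 note: cells exposed to compound for about 90 hours before reading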
Beta-galactosidase = Beta-galactosidase (Escherichia coli, UniProt Q8VNN2); assay: PubChem AID 485352; assay type: functional
Chain of Beta-galactosidase (Q8VNN2 whole entry): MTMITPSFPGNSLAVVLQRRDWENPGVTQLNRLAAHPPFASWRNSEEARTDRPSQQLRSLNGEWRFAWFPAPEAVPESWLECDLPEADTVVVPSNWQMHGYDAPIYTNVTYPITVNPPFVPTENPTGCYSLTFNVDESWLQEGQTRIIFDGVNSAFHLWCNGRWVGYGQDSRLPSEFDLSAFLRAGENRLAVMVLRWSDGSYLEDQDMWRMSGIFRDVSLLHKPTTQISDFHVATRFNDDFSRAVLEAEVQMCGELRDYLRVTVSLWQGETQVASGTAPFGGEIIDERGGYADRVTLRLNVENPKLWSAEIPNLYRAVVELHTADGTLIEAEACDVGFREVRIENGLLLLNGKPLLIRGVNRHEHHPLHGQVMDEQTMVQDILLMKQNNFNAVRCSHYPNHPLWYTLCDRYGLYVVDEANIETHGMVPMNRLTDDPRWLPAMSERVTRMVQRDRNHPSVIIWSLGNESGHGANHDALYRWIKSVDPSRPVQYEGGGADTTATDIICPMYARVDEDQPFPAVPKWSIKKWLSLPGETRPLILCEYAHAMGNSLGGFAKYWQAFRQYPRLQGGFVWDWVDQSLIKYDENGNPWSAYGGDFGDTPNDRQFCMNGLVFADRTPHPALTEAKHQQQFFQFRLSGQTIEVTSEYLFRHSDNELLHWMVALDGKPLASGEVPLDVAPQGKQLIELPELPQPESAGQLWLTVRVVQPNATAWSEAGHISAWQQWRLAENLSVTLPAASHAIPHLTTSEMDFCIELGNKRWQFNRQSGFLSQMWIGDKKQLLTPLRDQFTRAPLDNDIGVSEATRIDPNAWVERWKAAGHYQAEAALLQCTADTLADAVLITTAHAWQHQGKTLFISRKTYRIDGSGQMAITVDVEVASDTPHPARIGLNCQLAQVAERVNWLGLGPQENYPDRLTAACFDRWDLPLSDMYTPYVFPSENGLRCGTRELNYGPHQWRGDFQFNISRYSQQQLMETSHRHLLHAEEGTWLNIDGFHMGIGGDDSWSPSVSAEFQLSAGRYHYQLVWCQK

Beta Lactamase = Beta Lactamase (Pseudomonas aeruginosa, UniProt Q932Y6); assay: BLA reporter interference, concentration series – BLA reporter cells, FRET fluorescence, artefact control for TLR9-MyD88 binding inhibitor project, dose response (AID 588341); assay type: cell-based;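 note: cell based assay in CHO-K1 cells stably expressing beta-lactamase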
Chain of Beta Lactamase (Q932Y6 whole entry): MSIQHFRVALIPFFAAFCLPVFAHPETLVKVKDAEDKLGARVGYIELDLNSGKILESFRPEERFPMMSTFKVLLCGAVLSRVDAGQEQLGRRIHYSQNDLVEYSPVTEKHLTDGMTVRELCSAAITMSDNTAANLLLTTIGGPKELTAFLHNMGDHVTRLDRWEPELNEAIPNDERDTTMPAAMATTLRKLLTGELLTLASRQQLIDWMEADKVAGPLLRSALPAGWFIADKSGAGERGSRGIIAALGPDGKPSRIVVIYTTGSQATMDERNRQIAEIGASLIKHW

[8] = molecular target: T4, Sentrin-specific protease 6 (Homo sapiens, UniProt Q9GZR1); assay: SAR Analysis of small molecule inhibitors of Sentrin-specific protease 6 (SENP6) using a Luminescent assay. [Related pubchem assays (depositor defined):AID2582, AID2599]; assay type: functional
T4 sequence (Q9GZR1 whole entry): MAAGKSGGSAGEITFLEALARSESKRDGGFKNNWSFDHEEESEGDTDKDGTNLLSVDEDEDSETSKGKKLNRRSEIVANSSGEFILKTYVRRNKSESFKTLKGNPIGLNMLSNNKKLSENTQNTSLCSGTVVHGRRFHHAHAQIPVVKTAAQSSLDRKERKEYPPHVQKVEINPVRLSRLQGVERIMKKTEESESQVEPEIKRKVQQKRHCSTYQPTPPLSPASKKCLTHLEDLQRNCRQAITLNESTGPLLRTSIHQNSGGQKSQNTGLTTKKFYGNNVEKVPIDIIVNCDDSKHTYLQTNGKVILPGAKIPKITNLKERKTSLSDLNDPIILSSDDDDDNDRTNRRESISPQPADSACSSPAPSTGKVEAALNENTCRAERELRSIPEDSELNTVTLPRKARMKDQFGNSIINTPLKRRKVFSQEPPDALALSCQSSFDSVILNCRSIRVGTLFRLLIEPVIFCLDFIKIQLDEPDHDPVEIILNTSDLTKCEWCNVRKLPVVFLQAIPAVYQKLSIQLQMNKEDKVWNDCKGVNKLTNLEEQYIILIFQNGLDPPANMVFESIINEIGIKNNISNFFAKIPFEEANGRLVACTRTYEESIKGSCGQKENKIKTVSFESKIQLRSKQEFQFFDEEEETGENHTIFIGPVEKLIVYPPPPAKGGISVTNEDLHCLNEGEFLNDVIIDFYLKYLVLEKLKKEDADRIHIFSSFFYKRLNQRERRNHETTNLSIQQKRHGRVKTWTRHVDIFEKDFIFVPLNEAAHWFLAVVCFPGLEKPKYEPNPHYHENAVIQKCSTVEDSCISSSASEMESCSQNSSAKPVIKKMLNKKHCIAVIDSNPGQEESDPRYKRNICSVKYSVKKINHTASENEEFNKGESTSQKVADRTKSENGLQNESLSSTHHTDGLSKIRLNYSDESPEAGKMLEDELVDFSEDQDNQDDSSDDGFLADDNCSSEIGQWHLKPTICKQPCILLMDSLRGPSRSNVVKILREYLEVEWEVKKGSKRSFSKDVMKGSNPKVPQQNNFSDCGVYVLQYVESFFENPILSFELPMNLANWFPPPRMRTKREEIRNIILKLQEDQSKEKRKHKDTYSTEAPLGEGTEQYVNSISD

[9] = molecular target: T5, Sentrin-specific protease 7 (Homo sapiens, UniProt Q9BQF6); assay: inhibition of human SENP7 cleavage activity – biochemical, luminescence, SAR follow-up (AID 504497); assay type: functional
T5 sequence (Q9BQF6 whole entry): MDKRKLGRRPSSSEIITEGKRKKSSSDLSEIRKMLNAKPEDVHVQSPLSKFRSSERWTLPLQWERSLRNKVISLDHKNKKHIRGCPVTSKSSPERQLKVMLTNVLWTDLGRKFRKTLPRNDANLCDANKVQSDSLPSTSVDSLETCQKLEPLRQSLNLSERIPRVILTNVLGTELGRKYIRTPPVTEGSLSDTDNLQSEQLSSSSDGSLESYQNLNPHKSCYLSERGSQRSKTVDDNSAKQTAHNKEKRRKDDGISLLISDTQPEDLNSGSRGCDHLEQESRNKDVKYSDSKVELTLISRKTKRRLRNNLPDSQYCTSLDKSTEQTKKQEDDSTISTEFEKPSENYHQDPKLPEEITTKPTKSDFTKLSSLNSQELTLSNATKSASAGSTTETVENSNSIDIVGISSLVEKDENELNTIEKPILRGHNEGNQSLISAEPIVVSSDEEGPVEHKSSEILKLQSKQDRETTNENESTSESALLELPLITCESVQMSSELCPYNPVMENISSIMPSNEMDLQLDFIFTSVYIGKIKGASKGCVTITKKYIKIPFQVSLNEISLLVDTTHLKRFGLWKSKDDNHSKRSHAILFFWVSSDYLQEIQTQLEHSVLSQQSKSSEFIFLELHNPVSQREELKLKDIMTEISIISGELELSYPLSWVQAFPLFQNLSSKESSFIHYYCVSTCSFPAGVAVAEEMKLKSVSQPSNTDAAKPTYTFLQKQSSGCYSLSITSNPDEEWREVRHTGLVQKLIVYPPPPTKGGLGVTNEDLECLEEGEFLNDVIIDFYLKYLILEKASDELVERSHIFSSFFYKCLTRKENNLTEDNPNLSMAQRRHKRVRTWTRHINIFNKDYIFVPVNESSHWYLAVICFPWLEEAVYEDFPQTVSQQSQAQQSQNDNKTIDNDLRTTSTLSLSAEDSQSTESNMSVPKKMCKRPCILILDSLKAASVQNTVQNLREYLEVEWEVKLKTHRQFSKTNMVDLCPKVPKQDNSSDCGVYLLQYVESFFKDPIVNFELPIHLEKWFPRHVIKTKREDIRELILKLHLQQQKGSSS

[10] = molecular target: T6, Sentrin-specific protease 8 (Homo sapiens, UniProt Q96LD8); assay: inhibition of human SENP8 cleavage activity – biochemical, luminescence, SAR follow-up (AID 504501); assay type: functional
T6 sequence (Q96LD8 whole entry): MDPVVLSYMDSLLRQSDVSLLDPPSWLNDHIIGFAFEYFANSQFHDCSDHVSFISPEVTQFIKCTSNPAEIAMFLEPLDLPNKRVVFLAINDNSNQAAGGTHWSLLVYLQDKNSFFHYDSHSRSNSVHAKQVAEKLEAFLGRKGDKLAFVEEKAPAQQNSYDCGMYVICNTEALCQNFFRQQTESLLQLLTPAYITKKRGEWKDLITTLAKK

Caspase-3 = molecular target: T7, Caspase-3 (Homo sapiens, UniProt P42574); assay: SAR Analysis of small molecule inhibitors of Sentrin-specific proteases (SENPs) using a Caspase-3 Selectivity assay. [Related pubchem assays (depositor defined):AID2540, AID2599, AID434973, AID489001]; assay type: functional
T7 sequence (P42574 whole entry): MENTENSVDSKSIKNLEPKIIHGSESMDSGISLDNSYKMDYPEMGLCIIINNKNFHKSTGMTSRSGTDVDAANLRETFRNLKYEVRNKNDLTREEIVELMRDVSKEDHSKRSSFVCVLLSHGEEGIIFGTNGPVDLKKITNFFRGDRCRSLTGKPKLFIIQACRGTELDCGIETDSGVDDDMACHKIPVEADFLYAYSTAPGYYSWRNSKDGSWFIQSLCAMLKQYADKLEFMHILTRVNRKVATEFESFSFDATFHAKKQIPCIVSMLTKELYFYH

SMILES	EC50 [1]	AC50 [2]	AC50 (HEK293)	AC50 [3]	IC50 [4]	AC50 (INS1)	IC50 (CHO)	AC50 [5]	AC50 [6]	EC50 (Protein RecA)	EC50 [7]	EC50 (Beta-galactosidase)	IC50 (Beta Lactamase)	IC50 [8]	IC50 [9]	IC50 [10]	IC50 (Caspase-3)
CS(=O)(=O)c1ncc(Cl)c(C(=O)Nc2ccc(OC(F)F)cc2)n1	1.52 µM (active)	7.27 µM (active)	7.88 µM (active)	22.1 µM (active)	7.79 µM (active)	8.07 µM (active)	2.17 µM (active)	3.68 µM (active)	0.682 µM (active)	3.72 µM (active)	4.44 µM (active)	> 40 µM (inactive)	6.65 µM (active)				
COc1cc(C(=O)Nc2ccccc2F)ccc1OCc1ccc(Cl)cc1														> 99 µM (inactive)	> 99 µM (inactive)	> 99 µM (inactive)	> 99 µM (inactive)
